Experimental data published in patent US11267925B2, “Water-based polyurethane dispersions and their preparation” (Dow Global Technologies LLC, priority 2017, dated 2022).

Assays:
[1] = Vapor pressure versus temperature profiles and normal boiling points in ebulliometer (ASTM E1719); format: physicochemical
Description: (§1) The vapor pressures versus temperature profiles of neat PROGLYDE™ DMM dipropylene glycol dimethyl ether, neat N,N-DMPA, and of three different blends of dipropylene glycol dimethyl ether and N,N-DMPA containing 83 wt %, 55 wt %, and 35 wt % dipropylene glycol dimethyl ether respectively are measured in an ebulliometer in the 5-760 millimeters of mercury (mmHg) pressure range by ASTM E1719 to obtain Antoine constants and the normal boiling points of pure components and blends. Pseudo-azeotropes and actual minimum boiling azeotropes are indicated by a normal boiling point which is lower than the boiling point of either of the neat components. The solubility of DMPA in these blends is also evaluated at 25° C. at the DMPA:solvent blend ratio of 1:9. The composition of the blends is detailed in Table 1 below: […]

[2] = Solubility of DMPA in solvents and solvent blends (mixed on shaker, appearance observed); format: physicochemical; conditions: for affinity in terms of solubility toward DMPA: neat solvent, weight ratio solvent:DMPA 9:1, room temperature (23° C.), FIG. 2
Description: At room temperature (23° C.), 1 gram (g) of DMPA and 9 g solvent are added into a glass bottle and mixed on a shaker for 30 minutes. After shaking, the appearance of the mixture in each bottle is observed for solubility. The solvent is either neat dialkyl amide or a blend of dialkyl amide with PROGLYDE™ DMM dipropylene glycol dimethyl ether. Blends are prepared in three blend ratios: 2:1, 1:1, and 1:2 ether:dialkyl amide.
At room temperature (23° C.), 1 g DMPA and various weights of solvent are added into a glass bottle, then mixed for 30 minutes before checking the appearance.
as §1

Row | normal boiling point [1] [°C] | affinity in terms of solubility toward DMPA [2] | solubility of DMPA in N,N-DMPA at different weight ratios ([2]; dialkyl amide to DMPA 3:1 to 8:1, 23° C., FIG. 4) | SMILES
1 | 174.931 |  |  | COCC(C)OCC(C)OC (stereo not drawn) [dipropylene glycol dimethyl ether, reference compound]
2 |  | good affinity toward DMPA |  | CCN(CC)C(C)=O [N,N-DEAC, N,N-diethylacetamide]
3 | 175.186 | good affinity toward DMPA | can dissolve DMPA effectively | CCC(=O)N(C)C [N,N-DMPA, N,N-dimethylpropionamide]

Row | SMILES | normal boiling point [1] [°C] | affinity in terms of solubility toward DMPA [2] | solubility of DMPA in N,N-DMPA at different weight ratios ([2]; dialkyl amide to DMPA 3:1 to 8:1, 23° C., FIG. 4)
4 | COCCC(=O)N(C)C [M3-N,N-DMPA, 3-methoxy-N,N-dimethyl propionamide] |  | good affinity toward DMPA | 
